The values that follow come from US20250289827A1, “MORPHIC FORMS OF A MUTANT BRAF DEGRADER AND METHODS OF MANUFACTURE THEREOF” (C4 THERAPEUTICS, INC., priority 2022, published 2025).

Each structure is given as a SMILES string. Counter-ions that a name gives are not always drawn. Like-named read-outs stand apart in the source and are kept apart here.

Data set [1] can be described thus: Equilibration under a temperature cycle (XRPD). The settings on record: 2-methyltetrahydrofuran, about 8 cycles. Type of data set: physicochemical. Here is the method:
The equilibration was executed with a stirring bar on a magnetic stirring plate at a rate of 300 rpm. The obtained suspensions were filtered through a 0.45 µm nylon membrane filter by centrifugation at 14,000 rpm. Solid parts (wet cakes) were investigated by XRPD.

Data set [2] in a line: Characterization of salt forms (XRPD, DSC, TGA, KF, HPLC, NMR/IC). The data set is classed as physicochemical. The settings on record: for Melting onset (DCS, ° C.): Tonset. As for the experimental part: Salt Forms identified in the investigation (Table 16) were further characterized by XRPD, DCS, TGA, KF, HPLC and ^1H NMR/IC (Table 19).
About 419 mg of sodium salt Form F was obtained as off-white solid in 76% yield.

On to `CCN(C)S(=O)(=O)Nc1ccc(F)c(Oc2ccc3ncn([C@H]4COC5(CCN(C(=O)CC6(O)CCN(c7cc8c(cc7F)c(N7CCC(=O)NC7=O)nn8C)CC6)CC5)C4)c(=O)c3c2)c1C#N` [Compound 1 Form C], for which the “Form conversion on temperature cycling” value in data set [1] was “converted to more stable Form B”; in data set [1] (listed as Form C), “converted to anhydrate Form B”.
Take `CCN(C)S(=O)(=O)[N-]c1ccc(F)c(Oc2ccc3ncn([C@H]4COC5(CCN(C(=O)CC6(O)CCN(c7cc8c(cc7F)c(N7CCC(=O)NC7=O)nn8C)CC6)CC5)C4)c(=O)c3c2)c1C#N.[K+]` [Compound 1 potassium salt Form G]: the results for the “Weight loss (TGA)” value in data set [2] (at 170° C.) and in data set [2] (at 170° C.-230° C.) were 4.5% at 170° C., and 4.8% at 170° C.-, respectively.
On to `CCN(C)S(=O)(=O)Nc1ccc(F)c(Oc2ccc3ncn([C@H]4COC5(CCN(C(=O)CC6(O)CCN(c7cc8c(cc7F)c(N7CCC(=O)NC7=O)nn8C)CC6)CC5)C4)c(=O)c3c2)c1C#N` [Compound 1 potassium salt Form H], for which, in data set [2], the “Enthalpy (DSC, J/g)” value came to 33.48 J/g and the “Melting onset (DCS, ° C.)” value was “Tonset 221.7 °C”. In data set [2] (at 170° C.), the “Weight loss (TGA)” value is reported as 6.6% at.
Consider `CCN(C)S(=O)(=O)[N-]c1ccc(F)c(Oc2ccc3ncn([C@H]4COC5(CCN(C(=O)CC6(O)CCN(c7cc8c(cc7F)c(N7CCC(=O)NC7=O)nn8C)CC6)CC5)C4)c(=O)c3c2)c1C#N.[Na+]` [Compound 1 sodium salt Form D], for which, in data set [2] (listed as Sodium salt Form D), the “Melting onset (DCS, ° C.)” value was “Tonset 229.5 °C” and the “Enthalpy (DSC, J/g)” value is given as 27.83 J/g. In addition, in data set [2] (at 150° C.), the “Weight loss (TGA)” value is 6.9% at.
In the case of `CCN(C)S(=O)(=O)[N-]c1ccc(F)c(Oc2ccc3ncn([C@H]4COC5(CCN(C(=O)CC6(O)CCN(c7cc8c(cc7F)c(N7CCC(=O)NC7=O)nn8C)CC6)CC5)C4)c(=O)c3c2)c1C#N.[Na+]` [Compound 1 sodium salt Form E], in data set [2] (listed as Sodium salt Form E), the “Melting onset (DCS, ° C.)” value is “Tonset 228.7 °C”; the “Enthalpy (DSC, J/g)” value is on record as 26.01 J/g; the “Water content (by KF)” value amounted to 10.2% by % by weight. In addition, the “Weight loss (TGA)” value in data set [2] (at 180° C.) is reported as 10.8% at.
